# Paper PMC4116524, “A virtual screen identified C96 as a novel inhibitor of phosphatidylinositol 3-kinase that displays potent preclinical activity against multiple myeloma in vitro and in vivo” (Oncotarget, 2014)
# pEC50, pIC50: −log10 of the molar value. “And” between values parts separate entries of the source, which are not always exact repeats. Equal entries are not always repeated.
# Key:
# AKT1 = biological target: T1, AKT1 (Homo sapiens, UniProt P31749); experiment: Kinase activity in cell-free assay (HotSpot); format: biochemical
# T1 construct: purchased Reaction Biology Corp
# Procedure: (§1) Kinase activity in the presence of C96 was performed by using the HotSpot technology (Reaction Biology Corp., Malvern, PA, USA). Briefly, kinases (PI3Kα, β, δ, γ, AKT1, 2, 3, and mTOR) and substrates were diluted in reaction buffer. Subsequently, 5 nL of serially diluted C96 (in pure DMSO) was delivered into diluted kinase and substrate mixture by using Echo 550 (LabCyte Inc. Sunnyvale, CA). The reaction was started by adding ^33P-ATP (hot ATP) into the reaction mixture (the final concentration was 10 μM) and stopped after 2 hrs incubation at room temperature. The un-reacted hot ATP was washed away before detection.
# AKT2 = biological target: T2, AKT2 (Homo sapiens, UniProt P31751); experiment: Kinase activity in cell-free assay (HotSpot); format: biochemical
# T2 construct: purchased Reaction Biology Corp
# Procedure: as §1
# AKT3 = biological target: T3, AKT3 (Homo sapiens, UniProt Q9Y243); experiment: Kinase activity in cell-free assay (HotSpot); format: biochemical
# T3 construct: purchased Reaction Biology Corp
# Procedure: as §1
# PI3Kα = biological target: T4, PI3Kα (Homo sapiens, UniProt P42336); experiment: Kinase activity in cell-free assay (HotSpot); format: biochemical
# T4 construct: purchased Reaction Biology Corp
# Procedure: as §1
# PI3Kβ = biological target: T5, PI3Kβ (Homo sapiens, UniProt P42338); experiment: Kinase activity in cell-free assay (HotSpot); format: biochemical
# T5 construct: purchased Reaction Biology Corp
# Procedure: as §1
# PI3Kγ = biological target: T6, PI3Kγ (Homo sapiens, UniProt P48736); experiment: Kinase activity in cell-free assay (HotSpot); format: biochemical
# T6 construct: purchased Reaction Biology Corp
# Procedure: as §1
# PI3Kδ = biological target: T7, PI3Kδ (Homo sapiens, UniProt O00329); experiment: Kinase activity in cell-free assay (HotSpot); format: biochemical
# T7 construct: purchased Reaction Biology Corp
# Procedure: as §1
# mTOR = biological target: T8, mTOR (Homo sapiens, UniProt P42345); experiment: Kinase activity in cell-free assay (HotSpot); format: biochemical
# T8 construct: purchased Reaction Biology Corp
# Procedure: as §1
# KMS11 cells = experiment: Flow cytometric analysis of apoptosis (Annexin V-FITC/PI); format: cell-based; conditions: KMS11, C96 10 μM, 24 hrs; two quadrant values
# Procedure: (§2) MM cells treaded with C96 at concentrations from 0 to 20 μM, 24 hrs later, cells were stained with Annexin V-FITC and PI according to the manufacturer's instruction (Sigma, St Louis, MO). Apoptotic cells were measured on a flow cytometer (FACSCalibur, Becton Dickinson) as reported as previously.
# OPM2 cells [1] = experiment: as above; format: cell-based; conditions: OPM2, C96 10 μM, 24 hrs; two quadrant values
# Procedure: as §2
# RPMI-8226 (8226) cells = experiment: as above; format: cell-based; conditions: 8226, C96 10 μM, 24 hrs; two quadrant values
# Procedure: as §2
# OPM2 cells [2] = experiment: Cell migration analysis by the transwell assay; format: cell-based; conditions: 6 hrs
# Procedure: Next, we evaluated the effects of C96 on MM cell growth by measuring viable cells after starvation/IGF-1 stimulation in the presence of C96. As shown in Supplemental Figure 2A, IGF-1 stimulated MM cell growth, but it was suppressed by C96. We also examined the effects of C96 on MM cell migration upon IGF-1 stimulation.
# This assay was performed as described previously. Briefly, MM cells OPM2, JJN3 and LP1 were serum starved overnight and then re-suspended in 70 μL of IMDM medium/0.5% fetal calf serum with or without C96. These cells were then loaded onto polycarbonate membranes (8-μm pore size) separating 2 chambers of a transwell (Corning Costar, Cambridge, MA). Medium/0.1% FCS (500 μL) containing agonist IGF-1 was added to the lower chamber of the Transwell cluster plates. After 6 hrs, cells migrating into the lower chamber were counted using a hemacytometer.
# Supplementary Figure S2: C96 inhibits MM cell proliferation and migration in the presence of IGF-1. […] Cells were then incubated for another 24 hr, cell number was analyzed using MTT staining. […] Cells were loaded onto the upper chamber of a transwell, and the lower chamber was filled with IMDM containing agonist IGF-1.After 6 hrs, cells migrating into the lower chamber were counted using a hemacytometer. […]
# T3 sequence (Q9Y243 whole entry): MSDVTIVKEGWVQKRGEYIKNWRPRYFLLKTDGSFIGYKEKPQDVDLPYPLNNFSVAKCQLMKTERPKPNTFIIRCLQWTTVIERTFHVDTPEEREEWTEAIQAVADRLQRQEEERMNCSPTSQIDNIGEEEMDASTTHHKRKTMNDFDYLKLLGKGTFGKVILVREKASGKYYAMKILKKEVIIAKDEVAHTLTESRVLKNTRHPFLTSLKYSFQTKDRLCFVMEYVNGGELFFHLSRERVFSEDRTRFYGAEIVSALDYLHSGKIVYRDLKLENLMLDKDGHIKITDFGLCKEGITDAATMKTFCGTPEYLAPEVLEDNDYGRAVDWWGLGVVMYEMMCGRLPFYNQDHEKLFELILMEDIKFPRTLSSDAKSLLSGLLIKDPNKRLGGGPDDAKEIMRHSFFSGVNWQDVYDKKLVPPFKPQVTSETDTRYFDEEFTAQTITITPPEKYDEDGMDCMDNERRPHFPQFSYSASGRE
# T1 sequence (P31749 whole entry): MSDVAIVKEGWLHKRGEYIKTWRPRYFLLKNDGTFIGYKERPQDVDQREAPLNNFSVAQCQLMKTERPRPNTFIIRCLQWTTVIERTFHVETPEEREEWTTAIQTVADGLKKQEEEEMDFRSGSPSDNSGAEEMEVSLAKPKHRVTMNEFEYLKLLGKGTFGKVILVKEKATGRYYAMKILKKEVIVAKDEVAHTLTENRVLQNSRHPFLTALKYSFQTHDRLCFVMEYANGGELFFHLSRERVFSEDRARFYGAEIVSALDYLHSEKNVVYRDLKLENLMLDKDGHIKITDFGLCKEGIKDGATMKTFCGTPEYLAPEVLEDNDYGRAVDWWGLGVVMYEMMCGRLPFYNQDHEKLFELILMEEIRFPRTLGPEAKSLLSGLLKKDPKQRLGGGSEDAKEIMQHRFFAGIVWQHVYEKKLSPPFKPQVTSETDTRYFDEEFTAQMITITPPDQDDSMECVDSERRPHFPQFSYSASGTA
# T2 sequence (P31751 whole entry): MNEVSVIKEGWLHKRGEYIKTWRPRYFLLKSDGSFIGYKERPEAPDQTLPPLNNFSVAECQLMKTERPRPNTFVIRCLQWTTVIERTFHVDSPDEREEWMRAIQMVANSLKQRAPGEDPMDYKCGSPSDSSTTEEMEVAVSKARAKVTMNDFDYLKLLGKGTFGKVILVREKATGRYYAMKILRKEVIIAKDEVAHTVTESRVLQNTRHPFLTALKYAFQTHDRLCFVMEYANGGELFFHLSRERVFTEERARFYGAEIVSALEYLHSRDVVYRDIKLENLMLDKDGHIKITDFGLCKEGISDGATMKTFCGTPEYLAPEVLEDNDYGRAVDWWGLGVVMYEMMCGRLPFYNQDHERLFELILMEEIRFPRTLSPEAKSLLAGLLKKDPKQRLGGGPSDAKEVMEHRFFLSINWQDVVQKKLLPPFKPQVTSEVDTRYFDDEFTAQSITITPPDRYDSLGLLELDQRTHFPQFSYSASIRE
# T7 sequence (O00329 whole entry): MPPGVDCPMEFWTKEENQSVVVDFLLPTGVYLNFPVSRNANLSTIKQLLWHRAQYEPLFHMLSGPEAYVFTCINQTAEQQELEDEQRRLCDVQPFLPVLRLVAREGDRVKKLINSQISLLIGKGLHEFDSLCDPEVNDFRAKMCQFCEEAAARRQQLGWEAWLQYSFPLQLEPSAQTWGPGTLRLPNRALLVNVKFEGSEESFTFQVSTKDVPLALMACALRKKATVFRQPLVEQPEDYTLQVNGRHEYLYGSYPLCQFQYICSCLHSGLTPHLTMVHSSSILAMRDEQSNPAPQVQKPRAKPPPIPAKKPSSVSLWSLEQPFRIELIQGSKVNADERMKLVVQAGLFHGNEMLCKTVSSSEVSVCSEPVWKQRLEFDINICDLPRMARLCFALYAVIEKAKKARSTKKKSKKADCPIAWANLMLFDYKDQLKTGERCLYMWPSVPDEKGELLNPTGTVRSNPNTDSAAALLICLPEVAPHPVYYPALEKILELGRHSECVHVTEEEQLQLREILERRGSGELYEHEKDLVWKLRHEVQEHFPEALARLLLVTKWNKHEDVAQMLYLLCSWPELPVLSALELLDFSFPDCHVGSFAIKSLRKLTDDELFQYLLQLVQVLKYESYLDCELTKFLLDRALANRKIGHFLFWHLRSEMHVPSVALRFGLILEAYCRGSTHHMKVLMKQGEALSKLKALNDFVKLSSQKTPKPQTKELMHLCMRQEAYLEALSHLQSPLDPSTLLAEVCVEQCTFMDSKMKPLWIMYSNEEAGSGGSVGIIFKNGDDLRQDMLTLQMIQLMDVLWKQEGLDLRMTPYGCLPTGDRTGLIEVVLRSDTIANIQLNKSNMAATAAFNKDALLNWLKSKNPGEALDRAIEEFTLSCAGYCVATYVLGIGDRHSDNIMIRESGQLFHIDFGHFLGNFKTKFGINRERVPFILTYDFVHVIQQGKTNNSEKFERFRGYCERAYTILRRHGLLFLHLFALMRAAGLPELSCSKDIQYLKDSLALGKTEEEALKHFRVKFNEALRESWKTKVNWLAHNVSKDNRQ
# T7 sequence (P27986 whole entry partner): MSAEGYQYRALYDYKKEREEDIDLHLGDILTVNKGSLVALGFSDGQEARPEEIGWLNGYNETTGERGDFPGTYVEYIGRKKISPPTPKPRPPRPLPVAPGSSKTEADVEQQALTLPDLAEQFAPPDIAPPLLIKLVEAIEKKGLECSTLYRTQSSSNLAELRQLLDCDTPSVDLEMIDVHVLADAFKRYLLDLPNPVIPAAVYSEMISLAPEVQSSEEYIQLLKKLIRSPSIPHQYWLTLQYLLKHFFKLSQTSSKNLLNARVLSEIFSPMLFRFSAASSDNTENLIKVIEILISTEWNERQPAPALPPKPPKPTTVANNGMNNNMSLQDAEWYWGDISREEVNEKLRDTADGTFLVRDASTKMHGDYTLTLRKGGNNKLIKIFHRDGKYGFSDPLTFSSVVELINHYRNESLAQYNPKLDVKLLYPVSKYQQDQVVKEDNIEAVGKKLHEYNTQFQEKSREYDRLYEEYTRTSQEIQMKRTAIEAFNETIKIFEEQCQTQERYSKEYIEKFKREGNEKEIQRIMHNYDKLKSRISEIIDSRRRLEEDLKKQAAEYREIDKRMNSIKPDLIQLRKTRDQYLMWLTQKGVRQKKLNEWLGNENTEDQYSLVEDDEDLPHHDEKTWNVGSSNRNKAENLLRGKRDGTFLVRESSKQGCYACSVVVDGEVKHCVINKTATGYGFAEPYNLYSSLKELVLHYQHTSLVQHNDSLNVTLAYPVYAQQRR
# T4 sequence (P42336 whole entry): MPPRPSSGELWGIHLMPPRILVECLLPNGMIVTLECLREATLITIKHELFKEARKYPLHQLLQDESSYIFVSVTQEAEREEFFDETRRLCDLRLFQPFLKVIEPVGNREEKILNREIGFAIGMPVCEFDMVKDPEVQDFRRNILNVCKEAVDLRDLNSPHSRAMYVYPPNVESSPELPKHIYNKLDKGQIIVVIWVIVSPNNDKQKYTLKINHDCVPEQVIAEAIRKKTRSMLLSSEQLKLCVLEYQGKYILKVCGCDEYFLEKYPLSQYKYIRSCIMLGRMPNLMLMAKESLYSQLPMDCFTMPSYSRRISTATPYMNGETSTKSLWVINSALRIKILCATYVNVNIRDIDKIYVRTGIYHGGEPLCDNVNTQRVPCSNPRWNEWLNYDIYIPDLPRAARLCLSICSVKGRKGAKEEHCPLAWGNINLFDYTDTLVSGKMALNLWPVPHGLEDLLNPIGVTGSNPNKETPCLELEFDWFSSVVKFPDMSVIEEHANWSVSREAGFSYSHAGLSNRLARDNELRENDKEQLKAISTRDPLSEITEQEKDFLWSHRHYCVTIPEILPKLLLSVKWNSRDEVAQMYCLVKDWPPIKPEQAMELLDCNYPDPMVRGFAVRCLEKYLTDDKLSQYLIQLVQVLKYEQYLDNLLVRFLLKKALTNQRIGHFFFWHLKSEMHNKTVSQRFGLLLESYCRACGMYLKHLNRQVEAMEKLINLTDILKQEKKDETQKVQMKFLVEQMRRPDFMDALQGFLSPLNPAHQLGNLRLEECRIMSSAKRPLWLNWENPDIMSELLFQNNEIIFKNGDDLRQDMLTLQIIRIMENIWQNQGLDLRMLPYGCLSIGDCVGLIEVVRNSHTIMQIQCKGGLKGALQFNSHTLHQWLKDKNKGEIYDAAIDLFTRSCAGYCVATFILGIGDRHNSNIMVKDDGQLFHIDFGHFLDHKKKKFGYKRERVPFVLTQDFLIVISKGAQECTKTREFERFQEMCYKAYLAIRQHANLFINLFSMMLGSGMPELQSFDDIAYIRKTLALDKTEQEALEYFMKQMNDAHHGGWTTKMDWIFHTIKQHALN
# T4 sequence (P27986 whole entry partner): as the sequence (P27986 whole entry partner) above
compound,measurement,setting,value
"O=C1NC(=O)C(=CC=Cc2cccs2)C(=O)N1 [C96, 5-(3-(2-thienyl)-2-propen-1-ylidene)-2,4,6(1H,3H,5H)-pyrimidinetrione]",enzymatic activity AKT1,AKT1; 300 μM,higher than 50%
same,AKT1 catalytic activity,AKT1; C96 1.00E-04 M,89.13%
same,AKT1 catalytic activity,AKT1; C96 1.11E-05 M,104.72%
same,AKT1 catalytic activity,AKT1; C96 1.23E-06 M,101.71%
same,AKT1 catalytic activity,AKT1; C96 1.37E-07 M,102.27%
same,AKT1 catalytic activity,AKT1; C96 1.52E-08 M,94.32%
same,AKT1 catalytic activity,AKT1; C96 3.00E-04 M,57.61%
same,AKT1 catalytic activity,AKT1; C96 3.33E-05 M,100.86%
same,AKT1 catalytic activity,AKT1; C96 3.70E-06 M,110.72%
same,AKT1 catalytic activity,AKT1; C96 4.12E-07 M,99.76%
same,AKT1 catalytic activity,AKT1; C96 4.57E-08 M,103.80%
same,IC50 AKT1,AKT1; cell-free,not detectable
same,enzymatic activity AKT2,AKT2; 300 μM,higher than 50%
same,AKT2 catalytic activity,AKT2; C96 1.11E-05 M,102.16%
same,AKT2 catalytic activity,AKT2; C96 1.23E-06 M,97.18%
same,AKT2 catalytic activity,AKT2; C96 1.37E-07 M,97.27%
same,AKT2 catalytic activity,AKT2; C96 1.52E-08 M,95.67%
same,AKT2 catalytic activity,AKT2; C96 3.00E-04 M,86.10%
same,AKT2 catalytic activity,AKT2; C96 3.33E-05 M,100.38%
same,AKT2 catalytic activity,AKT2; C96 3.70E-06 M,102.25%
same,AKT2 catalytic activity,AKT2; C96 4.12E-07 M,100.48%
same,AKT2 catalytic activity,AKT2; C96 4.57E-08 M,100.26%
same,IC50 AKT2,AKT2; cell-free,not detectable
same,enzymatic activity AKT3,AKT3; 300 μM,higher than 50%
same,AKT3 catalytic activity,AKT3; C96 1.00E-04 M,98.26%
same,AKT3 catalytic activity,AKT3; C96 1.11E-05 M,100.98%
same,AKT3 catalytic activity,AKT3; C96 1.23E-06 M,100.31%
same,AKT3 catalytic activity,AKT3; C96 1.37E-07 M,100.29%
same,AKT3 catalytic activity,AKT3; C96 1.52E-08 M,109.49%
same,AKT3 catalytic activity,AKT3; C96 3.00E-04 M,79.18%
same,AKT3 catalytic activity,AKT3; C96 3.33E-05 M,108.59%
same,AKT3 catalytic activity,AKT3; C96 3.70E-06 M,117.76%
same,AKT3 catalytic activity,AKT3; C96 4.12E-07 M,106.62%
same,AKT3 catalytic activity,AKT3; C96 4.57E-08 M,102.54%
same,IC50 AKT3,AKT3; cell-free,not detectable
same,pEC50,PI3Kα,~5.30
same,pIC50,PI3Kα,5.27
same,pIC50,PI3Kβ,3.87
same,pIC50,PI3Kγ,3.94
same,pEC50,PI3Kδ,~5.30
same,pIC50,PI3Kδ,5.15
same,enzymatic activity mTOR,mTOR; 300 μM,higher than 50%
same,mTOR catalytic activity,mTOR; C96 1.00E-04 M,101.78%
same,mTOR catalytic activity,mTOR; C96 1.11E-05 M,102.93%
same,mTOR catalytic activity,mTOR; C96 1.23E-06 M,99.81%
same,mTOR catalytic activity,mTOR; C96 1.37E-07 M,100.28%
same,mTOR catalytic activity,mTOR; C96 1.52E-08 M,96.95%
same,mTOR catalytic activity,mTOR; C96 3.00E-04 M,102.57%
same,mTOR catalytic activity,mTOR; C96 3.33E-05 M,100.02%
same,mTOR catalytic activity,mTOR; C96 3.70E-06 M,101.74%
same,mTOR catalytic activity,mTOR; C96 4.12E-07 M,99.37%
same,mTOR catalytic activity,mTOR; C96 4.57E-08 M,99.19%
same,IC50 mTOR,mTOR; cell-free,not detectable
same,Annexin V/PI flow cytometry quadrant percentages,KMS11 cells,4.28% and 1.91%
same,Annexin V/PI flow cytometry quadrant percentages,OPM2 cells [1],42.12% and 21.89%
same,Annexin V/PI flow cytometry quadrant percentages,RPMI-8226 (8226) cells,13.50% and 15.66%
same,migration through 8-micrometer transwell membrane in the presence of IGF-1,OPM2 cells [2],partly suppressed
